Assay results: US9464053B2, “Compositions for reducing Aβ 42 production and their use in treating alzheimer's disease (AD)” (KAREUS THERAPEUTICS SA, priority 2010, dated 2016)
Marks after values point to notes of the source that are not given here.

Assays:
Aβ42 secretion = assay: Reduction of Aβ42 production in human neuronal SH-SY5Y cells (sandwich ELISA of cell media); format: cell-based; settings: SH-SY5Y cells incubated overnight, Aβ42 in media by sandwich ELISA, read-out: Aβ42 IC50
Procedure: We used the human Neuroblastoma SH-SY5Y cells for drug testing as a model for Aβ42 production. […] Cell toxicity was monitored using the MTT assay and all data reported are corrected for any cell loss.
The capture antibody, detection antibody and secondary antibody as well as standard purified preparations of Aβ42 were obtained from Sigma-Aldrich. Cells were cultured for 24 h in the presence or absence of compounds and the conditioned medium was subjected to sELISA.
Cells were incubated overnight with increasing concentrations the compounds. The cell media was then harvested and Aβ42 in the media was quantitated using sandwich ELISA.

Aβ-42 levels in brain = assay: Brain Aβ-42 levels in rat after two weeks oral treatment (ELISA); format: in vivo; settings: 2 weeks; for Aβ-42 levels Mean ± SE: rat brain, soluble fraction; for Percentage change: vs Control
Procedure: Animals are randomized into different treatment groups based on body weight. The test compounds are administered orally for 2 weeks while the control animals are administered the vehicle alone.
At the end of the study, animals are sacrificed 2 hours after the last dose and brain samples are excised and immediately frozen on dry ice. The frozen brains are homogenized in 3 volumes (w/v) of ice-cold 0.2% Diethylamine containing 50 mM NaCl, pH 10, and protease inhibitors, and then centrifuged at 15000 rpm at 4° C. for 30 min using a centrifuge. The resulting supernatant is retained as the soluble fraction and neutralized by addition of 10% 0.5 M Tris-HCl, pH 6.8.
Ar3-42 levels in brain tissue extracts were determined by ELISA. […] 100 μL of this was coated per well in a 96 well immunoplate (NUNC) at 4° C. for 16-18 hours. The plate was washed 3× with 230 μL of wash buffer. The wells were then blocked with 150 μL of blocking buffer for 1 hour. The plate was washed 3× with 230 μL of wash buffer. Samples, standard (2500-1.1 ng/ml) and blank were added to the appropriate wells and incubated with mild shaking for 2 hours. The plate was then washed 3× with 230 μL of wash buffer. […] 100 μL of this was added per well and incubated with mild shaking for 2 hours. The plate was washed 3× with 230 μl of wash buffer. 100 lit of Detection antibody, Anti-rabbit IgG whole molecule HRP conjugate (Sigma A6154 diluted 1:1000 with 1% BSA) added in to the wells and incubated for 2 hours with mild shaking. The plate was washed 3× with 230 μl of wash buffer followed by 100 μL of Strepavidin HRP (1:200 diluted with 1% BSA). The plate was 3× with 230 μL of wash buffer and 100 μL of TMB/H2O2 substrate was added and incubated for 20 minutes. The reaction was topped by adding 50 μL of 2N H2SO4 and the absorbance was measured at 450/570 nm in a microplate reader (BioTek)

Wistar rats = assay: Morris water maze task, scopolamine memory deficit; format: in vivo, rat; settings: mean, p.o., scopolamine-treated
Procedure: Male wistar rats are used for this study. The Water maze consists of a 1.8 m diameter; 0.6 m high circular tank filled with water (24±2° C.). A platform 16 cm diameter will be placed 1.0 cm below the water surface in the center of one of the four imaginary quadrants, which remains constant for all the rats. […] Rats were lowered gently, feet first into water. A rat was allowed to swim for 60 s to find the platform. If the platform was found during this time the trial was stopped and rat was allowed to stay on platform for 30 s before being removed from the maze. If the platform was not found during 60 s trial, then the rat was manually placed on the platform facing a visual cue and allowed to stay on platform for 30 s before being removed from the maze. The rats were taken off the platform (ensuring that the rat sees the investigator's hand from the front before removal) and dried with a towel gently. Each rat received 4 trials in a day. The maze has 8 starting points. On the first and third day the animals started from 1st, 3rd, 5th & 7th starting points. On the second and fourth day the animals started from 2nd, 4th, 6th & […] starting points. Retention of the task was assessed on 5th day in which each animal received a single 120 s probe trial during which platform was removed from the pool. Rats were not treated prior to retention trail. Rats were placed under a heating lamp for 5 min before being returned to its home cage. Latency to reach the platform ([…]), swim speed (cm/s) and path length (cm) was measured in acquisition trials. Percentage time spent in target quadrant (quadrant in which platform is placed during acquisition training) and swim speed (cm/s) was calculated in probe trial. The animals were tracked and the data was generated using the Video Mot 2 software. Experimentation was carried out over a period of 10 days i.e. first 6 animals was experimented on first five days and the next 6 animals was experimented on next five days (Pretreatment and testing schedule was initiated accordingly such that all animals receive 9 doses of vehicle or test drug). Data obtained was analyzed by Repeated measures Two way ANOVA followed by Bonferroni post tests by using the Graph pad prism software package.

soluble brain aβ-42 = assay: Tg2576 transgenic mouse model, soluble brain aβ-42 (ELISA); format: in vivo; settings: Tg 2576 mice, 4 weeks, 50 mg/kg orally daily
Procedure: (§1) The study used 6-month old Tg (HuApp695.K670-M671L) 2576 transgenic and age-matched C57B16/SJL non-transgenic control mice (Hsiao K, Chapman P, Nilsen S, Eckman C, Harigaya Y, et al. Correlative memory deficits, Abeta elevation, and amyloid plaques in transgenic mice. Science. 1996; 274:99-102). Mice were obtained from Jackson Labs and a colony was established. Tg2576 transgenic mice over-express human APP with the double Swedish mutation. Tg2756 and control mice were treated for a period of 4 weeks with either 1) vehicle alone n=10), 2) compound 9 (50 mg/kg dosed orally; n=10). Soluble brain aβ-42 and aβ-40 were measured using the typical ELISA protocol described before.

soluble brain aβ-40 = assay: Tg2576 transgenic mouse model, soluble brain aβ-40 (ELISA); format: in vivo; settings: Tg 2576 mice, 4 weeks, 50 mg/kg orally daily
Procedure: as §1

[1] = Day-1 acquisition trials, 1 mg/kg
[2] = Day-1 acquisition trials, 3 mg/kg
[3] = Day-1 acquisition trials, 10 mg/kg
[4] = Day-2 acquisition trials, 1 mg/kg
[5] = Day-2 acquisition trials, 3 mg/kg
[6] = Day-2 acquisition trials, 10 mg/kg
[7] = Day-3 acquisition trials, 1 mg/kg
[8] = Day-3 acquisition trials, 3 mg/kg
[9] = Day-3 acquisition trials, 10 mg/kg
[10] = Day-4 acquisition trials, 1 mg/kg
[11] = Day-4 acquisition trials, 3 mg/kg
[12] = Day-4 acquisition trials, 10 mg/kg

C=CCc1ccc(OC(=O)CC(OC(=O)c2cccnc2)C(=O)OC)c(OC)c1 (stereo not drawn) [Compound 9, 2-(Pyridine-3-carbonyloxy)-succinic acid 4-(4-allyl-2-methoxy-phenyl) ester 1-methyl ester]
IC50 (Aβ42 secretion): 18.7 µM
Aβ-42 levels Mean ± SE (Aβ-42 levels in brain; 10 mg/kg oral): 44.14 ± 7.88 ng/mg protein
Aβ-42 levels Mean ± SE (Aβ-42 levels in brain; 25 mg/kg oral): 31.03 ± 3.98 ng/mg protein
Aβ-42 levels Mean ± SE (Aβ-42 levels in brain; 50 mg/kg oral): 21.85 ± 1.75 ng/mg protein
Percentage change (Aβ-42 levels in brain; 10 mg/kg oral): −22%
Percentage change (Aβ-42 levels in brain; 25 mg/kg oral): −45%
Percentage change (Aβ-42 levels in brain; 50 mg/kg oral): −61%
Path length (Wistar rats; [1]): 1423.43 cm
Swim speed (Wistar rats; [1]): 26.53 cm/s
Target latency (Wistar rats; [1]): 53859.40 ms
Path length (Wistar rats; [2]): 1329.08 cm
Swim speed (Wistar rats; [2]): 25.77 cm/s
Target latency (Wistar rats; [2]): 50283.22^ ms
Path length (Wistar rats; [3]): 1480.57 cm
Swim speed (Wistar rats; [3]): 26.93 cm/s
Target latency (Wistar rats; [3]): 54445.94 ms
Path length (Wistar rats; [4]): 1619.28 cm
Swim speed (Wistar rats; [4]): 30.67 cm/s
Target latency (Wistar rats; [4]): 51421.60 ms
Path length (Wistar rats; [5]): 1503.53 cm
Swim speed (Wistar rats; [5]): 29.97 cm/s
Target latency (Wistar rats; [5]): 48347.97^ ms
Path length (Wistar rats; [6]): 1755.96 cm
Swim speed (Wistar rats; [6]): 31.99 cm/s
Target latency (Wistar rats; [6]): 53382.85 ms
Path length (Wistar rats; [7]): 1414.4745^ cm
Swim speed (Wistar rats; [7]): 31.07 cm/s
Target latency (Wistar rats; [7]): 43128.23 ms
Path length (Wistar rats; [8]): 1038.10** cm
Swim speed (Wistar rats; [8]): 28.45** cm/s
Target latency (Wistar rats; [8]): 32780.27** ms
Path length (Wistar rats; [9]): 1509.45 cm
Swim speed (Wistar rats; [9]): 30.89^ cm/s
Target latency (Wistar rats; [9]): 45171.54 ms
Path length (Wistar rats; [10]): 1233.92* cm
Swim speed (Wistar rats; [10]): 29.51* cm/s
Target latency (Wistar rats; [10]): 40643.54 ms
Path length (Wistar rats; [11]): 946.10*** cm
Swim speed (Wistar rats; [11]): 28.57*** cm/s
Target latency (Wistar rats; [11]): 31915.04*** ms
Path length (Wistar rats; [12]): 1254.41^ cm
Swim speed (Wistar rats; [12]): 29.36** cm/s
Target latency (Wistar rats; [12]): 40663.06 ms
reduction of brain levels of soluble aβ-42 (soluble brain aβ-42): 22%
reduction of brain levels of soluble aβ-40 (soluble brain aβ-40): 23%
